Source: ChEMBL document CHEMBL4196002, “Design, synthesis, mechanistic and histopathological studies of small-molecules of novel indole-2-carboxamides and pyrazino[1,2-a]indol-1(2H)-ones as potential anticancer agents effecting the reactive oxygen species production” (Eur J Med Chem, 2018)

Tests used:
Tubulin (Homo sapiens) = Tubulin (Homo sapiens) (UniProt P68371+Q9H4B7+P0DPH7+P68366+Q13509+Q71U36+P04350+Q3ZCM7+P07437+P68363+Q9BQE3+Q6PEY2+Q13885+Q9BVA1+Q9BUF5); assay: Inhibition of tubulin (unknown origin) polymerization assessed as tubulin assembly rate by fluorescence assay; assay type: protein-complex assay
[1] = Antioxidant activity assessed as DPPH radical scavenging activity at 50 uM after 30 mins dark incubation; assay type: functional
[2] = Cytotoxicity against human MCF10A cells assessed as cell viability at 50 uM after 96 hrs by MTT assay relative to control; assay type: cell-based, MCF-10A; details: read-out: Activity
[3] = Inhibition of ROS generation in human PMN at 1.56 ug/ml after 50 mins by luminol-based chemiluminescence assay relative to control; assay type: functional
PC-3 = assay: Antiproliferative activity human PC3 cells after 48 hrs by propidium iodide staining-based fluorescence assay; assay type: functional, cell-based; details: PC-3, 48 h
[4] = target: Epidermal growth factor receptor (Homo sapiens, UniProt P00533); assay: Inhibition of His6-tagged EGFR (unknown origin) cytoplasmic domain expressed in baculovirus infected Sf9 insect cells after 10 mins followed by addition of ATP-MgCl2 and measured after 1 hr by time-resolved fluorometric analysis
Chain of Epidermal growth factor receptor (P00533 whole entry, the tested form may be a part): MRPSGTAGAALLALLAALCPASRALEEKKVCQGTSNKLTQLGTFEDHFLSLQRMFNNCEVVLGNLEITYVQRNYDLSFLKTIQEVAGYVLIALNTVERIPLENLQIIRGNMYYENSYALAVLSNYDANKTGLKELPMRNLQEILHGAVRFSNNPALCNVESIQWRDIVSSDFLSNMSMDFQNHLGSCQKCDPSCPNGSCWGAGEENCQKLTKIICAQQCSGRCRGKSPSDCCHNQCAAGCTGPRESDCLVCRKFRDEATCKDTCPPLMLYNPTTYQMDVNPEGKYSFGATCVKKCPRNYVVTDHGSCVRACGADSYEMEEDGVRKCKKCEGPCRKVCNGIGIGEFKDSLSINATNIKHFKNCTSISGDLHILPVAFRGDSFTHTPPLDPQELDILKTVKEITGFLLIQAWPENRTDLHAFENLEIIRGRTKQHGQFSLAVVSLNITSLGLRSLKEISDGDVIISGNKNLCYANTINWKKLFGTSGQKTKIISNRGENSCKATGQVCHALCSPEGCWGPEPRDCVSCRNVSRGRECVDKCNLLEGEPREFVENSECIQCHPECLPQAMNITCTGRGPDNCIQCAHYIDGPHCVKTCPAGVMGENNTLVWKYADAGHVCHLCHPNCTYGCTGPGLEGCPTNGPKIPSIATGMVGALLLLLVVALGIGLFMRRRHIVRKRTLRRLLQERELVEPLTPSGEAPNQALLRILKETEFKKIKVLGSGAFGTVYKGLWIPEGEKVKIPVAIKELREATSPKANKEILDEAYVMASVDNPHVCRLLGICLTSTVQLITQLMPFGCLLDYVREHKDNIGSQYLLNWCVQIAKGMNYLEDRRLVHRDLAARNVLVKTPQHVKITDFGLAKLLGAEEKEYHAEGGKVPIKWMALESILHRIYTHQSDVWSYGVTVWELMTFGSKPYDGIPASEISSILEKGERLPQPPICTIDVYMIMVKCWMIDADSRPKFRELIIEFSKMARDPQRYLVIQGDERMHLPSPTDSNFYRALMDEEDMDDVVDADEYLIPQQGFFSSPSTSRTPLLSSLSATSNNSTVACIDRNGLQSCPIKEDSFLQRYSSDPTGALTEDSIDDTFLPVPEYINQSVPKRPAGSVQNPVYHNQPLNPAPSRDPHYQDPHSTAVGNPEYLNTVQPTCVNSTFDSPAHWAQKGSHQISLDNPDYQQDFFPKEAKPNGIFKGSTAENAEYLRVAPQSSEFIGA

[5] = target: Serine/threonine-protein kinase B-raf (Mus musculus, UniProt P28028, V600E); assay: Inhibition of mouse full-length GST-tagged BRAF V600E mutant using recombinant human full length N-terminal His-tagged MEK1 as substrate preincubated for 60 mins followed by substrate addition and measured after 25 mins by ELISA
Chain of Serine/threonine-protein kinase B-raf (P28028 whole entry, looked up, stated change not applied): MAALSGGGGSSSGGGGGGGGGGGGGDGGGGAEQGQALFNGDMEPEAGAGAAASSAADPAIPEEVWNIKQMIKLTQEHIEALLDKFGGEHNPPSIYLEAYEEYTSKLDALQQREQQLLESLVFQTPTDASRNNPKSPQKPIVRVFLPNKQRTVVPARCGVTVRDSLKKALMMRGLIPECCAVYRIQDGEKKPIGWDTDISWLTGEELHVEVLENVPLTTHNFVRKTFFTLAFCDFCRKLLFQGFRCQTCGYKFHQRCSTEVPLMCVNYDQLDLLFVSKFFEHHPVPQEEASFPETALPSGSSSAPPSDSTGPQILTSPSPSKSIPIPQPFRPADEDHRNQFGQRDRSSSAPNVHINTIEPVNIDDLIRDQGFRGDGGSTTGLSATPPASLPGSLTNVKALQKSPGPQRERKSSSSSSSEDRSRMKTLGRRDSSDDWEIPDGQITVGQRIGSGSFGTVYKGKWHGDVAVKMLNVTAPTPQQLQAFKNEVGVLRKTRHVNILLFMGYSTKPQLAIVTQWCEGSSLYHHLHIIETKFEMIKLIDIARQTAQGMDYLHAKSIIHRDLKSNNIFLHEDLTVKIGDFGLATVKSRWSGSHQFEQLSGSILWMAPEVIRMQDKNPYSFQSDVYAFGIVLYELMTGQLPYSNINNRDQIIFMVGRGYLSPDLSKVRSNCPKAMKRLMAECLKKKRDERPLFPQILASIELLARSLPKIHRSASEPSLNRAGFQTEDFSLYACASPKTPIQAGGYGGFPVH

MCF7 = assay: Antiproliferative activity human MCF7 cells after 48 hrs by propidium iodide staining-based fluorescence assay; assay type: functional, cell-based; details: MCF7, 48 h
[6] = Antioxidant activity assessed as DPPH radical scavenging activity at 10 uM after 30 mins dark incubation; assay type: functional
[7] = Inhibition of ROS generation in human PMN at 6.25 ug/ml after 50 mins by luminol-based chemiluminescence assay relative to control; assay type: functional
[8] = Antioxidant activity assessed as DPPH radical scavenging activity at 100 uM after 30 mins dark incubation; assay type: functional
MIA PaCa-2 = assay: Antiproliferative activity human MIAPaCa2 cells after 48 hrs by propidium iodide staining-based fluorescence assay; assay type: functional, cell-based; details: MIA PaCa-2, 48 h
[9] = Inhibition of ROS generation in human PMN at 3.13 ug/ml after 50 mins by luminol-based chemiluminescence assay relative to control; assay type: functional
HT-29 = assay: Antiproliferative activity human HT-29 cells after 48 hrs by propidium iodide staining-based fluorescence assay; assay type: functional, cell-based; details: HT-29, 48 h
Homo sapiens = species: Homo sapiens; assay: (§1) Inhibition of ROS generation in human PMN after 50 mins by luminol-based chemiluminescence assay; assay type: functional
[10] = as §1; assay type: functional
A549 = assay: Antiproliferative activity human A549 cells after 48 hrs by propidium iodide staining-based fluorescence assay; assay type: functional, cell-based; details: A549, 48 h
[11] = Inhibition of ROS generation in human PMN at 12.5 ug/ml after 50 mins by luminol-based chemiluminescence assay relative to control; assay type: functional
[12] = Inhibition of ROS generation in human PMN at 0.78 ug/ml after 50 mins by luminol-based chemiluminescence assay relative to control; assay type: functional

Structure (SMILES) | Activity (Tubulin (Homo sapiens)) | Activity [1] | viability at 96 h, 50 µM [2] | inhibition at 1.56 µg/mL [3] | IC50 (PC-3) | IC50 [4] | IC50 [5] | IC50 (MCF7) | Activity [6] | inhibition at 6.25 µg/mL [7] | Activity [8] | IC50 (MIA PaCa-2) | inhibition at 3.13 µg/mL [9] | IC50 (HT-29) | inhibition (Homo sapiens) | IC50 [10] | IC50 (A549) | inhibition at 12.5 µg/mL [11] | inhibition at 0.78 µg/mL [12]
CCc1c(C(=O)NC(CO)Cc2ccccc2)[nH]c2ccc(C(F)(F)F)cc12 (configuration not stated) | 2650 a.u. | 61.7% | 80% | 31% | 1100 nM | 900 nM | 1000 nM | 1100 nM | 43.4% | 62% | 78% | 1300 nM | 47% | 1900 nM | Dose-dependent effect | 9700 nM | 1500 nM | 79% | 26%
Cc1c(C(=O)NC(CO)Cc2ccccc2)[nH]c2ccc(Cl)cc12 (configuration not stated) | 2570 a.u. | 72.7% | 90% | 45% | 2500 nM | 500 nM | 3700 nM | 2800 nM | 55.4% | 65% | 86.4% | 2600 nM | 58% | 2900 nM | Dose-dependent effect | 5910 nM | 2900 nM | 74% | 39%
CCc1c2cc(C(F)(F)F)ccc2n2cc(Cc3ccccc3)[nH]c(=O)c12 | 1920 a.u. | 72.9% | 79% | 42% | 1000 nM | 3900 nM | 900 nM | 900 nM | 52.2% | 72% | 84.4% | 1100 nM | 56% | 900 nM | Dose-dependent effect | 6530 nM | 1400 nM | 89% | 31%
CCc1c2cc(Br)ccc2n2cc(Cc3ccccc3)[nH]c(=O)c12 |  | 73.9% | 82% | 44% | 3400 nM |  |  | 3600 nM | 54.5% | 61% | 82.4% | 4600 nM | 52% | 4800 nM | Dose-dependent effect | 6440 nM | 4500 nM | 70% | 25%
O=C(NC(CO)Cc1ccccc1)c1cc2cc(Cl)ccc2[nH]1 (configuration not stated) | 2420 a.u. | 61.2% | 89% | 33% | 2400 nM | 800 nM | 4800 nM | 1400 nM | 50.2% | 60% | 77.5% | 2600 nM | 48% | 2400 nM | Dose-dependent effect | 11300 nM | 1900 nM | 77% | 25%
